Test results from patent publication US9126952B2, “Morpholinylquinazolines” (Merck Patent GmbH, priority 2010, dated 2015).

Target: DNA-PK (Homo sapiens (Human), UniProt P78527)
Assay: DNA-PK/biochemical assay (FlashPlate kinase assay)
Settings: 5 μM ATP, 90 min, room temperature; read-out: Binding DNA-PK IC50
Experimental: […] To this end, 1.5 μg of the DNA-PK/protein complex and 100 ng of biotinylated substrate, such as, for example, PESQEAFADLWKK biotin-NH2 (“biotin-DNA-PK peptide”), in a total volume of 36.5 μl (34.25 mM HEPES/KOH, 7.85 mM Tris-HCl, 68.5 mM KCl, 5 μM ATP, 6.85 mM MgCl2, 0.5 mM EDTA, 0.14 mM EGTA, 0.69 mM DTT, pH 7.4), were incubated at room temperature for 90 min with 500 ng of DNA from calf thymus, 0.1 μCi of 33P-ATP and 1.8% of DMSO per well with or without the test compound. The reaction was stopped using 50 μl/well of 200 mM EDTA. After incubation for a further 30 min at room temperature, the liquid was removed. Each well was washed three times with 100 μl of 0.9% sodium chloride solution. A non-specific reaction (blank value) was determined using 10 μM of a proprietary kinase inhibitor. The radioactivity measurement was carried out by means of a TopCount. IC50 values were calculated in RS1. • Literature: Kashishian et al. (2003) Molecular Cancer Therapeutics 1257.

| IC50 [nM] | Structure (SMILES) |
| --- | --- |
| < 100 | Cc1cnc(C(O)C2CCCN(c3ncnc4cc(N5CCOCC5)ccc34)C2)s1 (centres unmarked) [compound 47, (5-Methyl-thiazol-2-yl)-[1-(7-morpholin-4-ylquinazolin-4-yl)-piperidin-3-yl]-methanol] |
| 500 to 1000 | Nc1nc(N2CCCCC2)c2ccc(N3CCOCC3)cc2n1 [compound 57, 7-Morpholin-4-yl-4-piperidin-1-yl-quinazolin-2-ylamine] |
| < 100 | Clc1nc(N2CCCC(Cn3ccnc3)C2)c2ccc(N3CCOCC3)cc2n1 (centres unmarked) [compound 25, 2-Chloro-4-(3-imidazol-1-ylmethyl-piperidin-1-yl)-7-morpholin-4-yl-quinazoline] |
| < 100 | Cn1ccnc1CC1CCCN(c2ncnc3cc(N4CCOCC4)ccc23)C1 (centres unmarked) [compound 29, 4-[3-(1-Methyl-1H-imidazol-2-ylmethyl)-piperidin-1-yl]-7-morpholin-4-yl-quinazoline] |
| 500 to 1000 | NC(=O)C1CCCN(c2ncnc3cc(N4CCOCC4)ccc23)C1 (centres unmarked) [compound 17, 1-(7-Morpholin-4-yl-quinazoline-4-yl)-piperidin-3-carboxamide] |
| 500 to 1000 | Fc1ccc2[nH]cc(C3CCCN(c4ncnc5cc(N6CCOCC6)ccc45)C3)c2c1 (centres unmarked) [compound 9, 4-[3-(5-Fluoro-1H-indol-3-yl)piperidin-1-yl]-7-morpholin-4 ylquinazoline] |
| < 100 | c1ccc(C2CCCN(c3ncnc4cc(N5CCOCC5)ccc34)C2)cc1 (centres unmarked) [compound 4, 7-Morpholin-4-yl-4-(3-phenylpiperidin-1-yl)quinazoline] |
| 100 to 500 | c1ccc(C[C@@H]2CCCN(c3ncnc4cc(N5CCOCC5)ccc34)C2)cc1 [compound 11, 4-((S)-3-Benzyl-piperidin-1-yl)-7-morpholin-4-yl-quinazoline] |
| < 100 | O[C@H](c1nccs1)C1CCCN(c2ncnc3cc(N4CCOCC4)ccc23)C1 (some centres unmarked) [compound 66] |
| 500 to 1000 | c1nc(N2CCCC(CC3CCCCC3)C2)c2ccc(N3CCOCC3)cc2n1 (centres unmarked) [compound 10] |
| 100 to 500 | O=C(c1ccc(F)cc1)C1CCCN(c2ncnc3cc(N4CCOCC4)ccc23)C1 (centres unmarked) [compound 16, (4-Fluorophenyl)-[1-(7-morpholin-4-yl-quinazoline-4-yl)-piperidin-3-yl]-methanone] |
| < 100 | Clc1nc(N2CCCCC2)c2ccc(N3CCOCC3)cc2n1 [compound 2] |
| 100 to 500 | c1ccc2oc(C3CCCN(c4ncnc5cc(N6CCOCC6)ccc45)C3)nc2c1 (centres unmarked) [compound 26, 4-(3-Benzoxazol-2-ylpiperidin-1-yl)-7-morpholin-4-yl-quinazoline] |
| 100 to 500 | c1ccc2sc(CC3CCCN(c4ncnc5cc(N6CCOCC6)ccc45)C3)nc2c1 (centres unmarked) [compound 43, 4-(3-Benzothiazol-2-ylmethylpiperidin-1-yl)-7-morpholin-4-yl-quinazoline] |
| < 100 | c1csc(CC2CCCN(c3ncnc4cc(N5CCOCC5)ccc34)C2)c1 (centres unmarked) [compound 33] |
| < 100 | c1ccc([C@H]2CCCN(c3ncnc4cc(N5CCOCC5)ccc34)C2)cc1 [compound 6, 7-Morpholin-4-yl-4-((R)-3-phenyl-piperidin-1-yl)-quinazoline] |
| < 100 | OC(c1ccsc1)C1CCCN(c2ncnc3cc(N4CCOCC4)ccc23)C1 (centres unmarked) [compound 45, [1-(7-Morpholin-4-yl-quinazolin-4-yl)-piperidin-3-yl]-thiophen-3-yl-methanol] |
| 100 to 500 | COc1ccc(CC2CCCN(c3ncnc4cc(N5CCOCC5)ccc34)C2)cc1OC (centres unmarked) [compound 42, 4[3-(3,4-Dimethoxy-benzyl)piperidin-1-yl]-7-morpholin-4-yl-quinazoline] |
| < 100 | OC(c1nccs1)C1CCCN(c2ncnc3cc(N4CCOCC4)ccc23)C1 (centres unmarked) [compound 46, [1-(7-Morpholin-4-yl-quinazolin-4-yl)-piperidin-3-yl]-thiazol-2-yl-methanol] |
| < 100 | COc1cccc(C2CCCN(c3ncnc4cc(N5CCOCC5)ccc34)C2)c1 (centres unmarked) [compound 22, 4-[3-(3-Methoxy-phenyl)piperidin-1-yl]-7-morpholin-4-yl-quinazoline] |
| < 100 | c1ccn(CC2CCCN(c3ncnc4cc(N5CCOCC5)ccc34)C2)c1 (centres unmarked) [compound 13, 7-Morpholin-4-yl-4-(3-pyrrol-1-ylmethyl-piperidin-1-yl)-quinazoline] |
| < 100 | COc1cccc(CC2CCCN(c3ncnc4cc(N5CCOCC5)ccc34)C2)c1 (centres unmarked) [compound 41, 4-[3-(3-Methoxy-benzyl)piperidin-1-yl]-7-morpholin-4-yl-quinazoline] |
| < 100 | COc1cccc(C(O)C2CCCN(c3ncnc4cc(N5CCOCC5)ccc34)C2)c1 (centres unmarked) [compound 38, (3-Methoxyphenyl)-[1-(7-morpholin-4-yl-quinazolin-4-yl)-piperidin-3-yl]-methanol] |
| < 100 | c1csc(CC2CCCN(c3ncnc4cc(N5CCOCC5)ccc34)C2)n1 (centres unmarked) [compound 32] |

| IC50 [nM] | Structure (SMILES) |
| --- | --- |
| < 100 | Cc1csc(CC2CCCN(c3ncnc4cc(N5CCOCC5)ccc34)C2)n1 (centres unmarked) [compound 56, 4-[3-(4-Methyl-thiazol-2-ylmethyl)-piperidin-1-yl]-7-morpholin-4-yl-quinazoline] |
| 100 to 500 | CC1CCCN(c2ncnc3cc(N4CCOCC4)ccc23)C1 (centres unmarked) [compound 12, 4-(3-Methylpiperidin-1-yl)-7-morpholin-4-ylquinazoline] |
| > 1000 | Cc1nc(N2CCCCC2)c2ccc(N3CCOCC3)cc2n1 [compound 34, 2-Methyl-7-morpholin-4-yl-4-piperidin-1-yl-quinazoline] |
| 100 to 500 | O=C(C1CCCN(c2ncnc3cc(N4CCOCC4)ccc23)C1)N1CCCCC1 (centres unmarked) [compound 20, [1-(7-Morpholin-4-yl-quinazoline-4-yl)-piperidin-3-yl]-piperidin-1-yl-methanone] |
| < 100 | c1csc(C2CCCN(c3ncnc4cc(N5CCOCC5)ccc34)C2)c1 (centres unmarked) [compound 40, 7-Morpholin-4-yl-4-(3-thiophen-2-yl-piperidin-1-yl)-quinazoline] |
| > 1000 | COc1nc(N2CCCCC2)c2ccc(N3CCOCC3)cc2n1 [compound 39, 2-Methoxy-7-morpholin-4-yl-4-piperidin-1-yl-quinazoline] |
| < 100 | Cc1nc(C(O)C2CCCN(c3ncnc4cc(N5CCOCC5)ccc34)C2)sc1C (centres unmarked) [compound 48, (4,5-Dimethyl-thiazol-2-yl)-[1-(7-morpholin-4-yl-quinazolin-4-yl)-piperidin-3-yl]-methanol] |
| < 100 | c1ccc2sc(C3CCCN(c4ncnc5cc(N6CCOCC6)ccc45)C3)nc2c1 (centres unmarked) [compound 14, 4-(3-Benzothiazol-2-ylpiperidin-1-yl)-7-morpholin-4-yl-quinazoline] |
| > 1000 | Oc1nc(N2CCCCC2)c2ccc(N3CCOCC3)cc2n1 [compound 54, 7-Morpholin-4-yl-4-piperidin-1-yl-quinazolin-2-ol] |
| < 100 | Clc1nc(N2CCCC(Cc3nccs3)C2)c2ccc(N3CCOCC3)cc2n1 (centres unmarked) [compound 36, 2-Chloro-7-morpholin-4-yl-4-(3-thiazol-2-ylmethyl-piperidin-1-yl)-quinazoline] |
| 100 to 500 | O=C(NC1CCCN(c2nc(Cl)nc3cc(N4CCOCC4)ccc23)C1)c1cccs1 (centres unmarked) [compound 64, N-[1-(2-Chloro-7-morpholin-4-yl-quinazolin-4-yl)-piperidin-3-yl]-thiophene-2-carboxamide] |
| 500 to 1000 | Cc1noc(C2CCCN(c3ncnc4cc(N5CCOCC5)ccc34)C2)n1 (centres unmarked) [compound 19, 4-[3-(3-Methyl-1,2,4-oxadiazol-5-yl)-piperidin-1-yl]-7-morpholin-4-yl-quinazoline] |
| 100 to 500 | Cn1ccnc1C(O)C1CCCN(c2ncnc3cc(N4CCOCC4)ccc23)C1 (centres unmarked) [compound 55, (1-Methyl-1H-imidazol-2-yl)-[1-(7-morpholin-4-yl-quinazolin-4-yl)-piperidin-3-yl]-methanol] |
| < 100 | Cc1cnc(CC2CCCN(c3ncnc4cc(N5CCOCC5)ccc34)C2)s1 (centres unmarked) [compound 51, 4-[3-(5-Methyl-thiazol-2-ylmethyl)-piperidin-1-yl]-7-morpholin-4-yl-quinazoline] |
| < 100 | c1nc(N2CCCCC2)c2ccc(N3CCOCC3)cc2n1 [compound 1, 7-Morpholin-4-yl-4-piperidin-1-yl-quinazoline] |
| 100 to 500 | c1nc(N2CCCC2)c2ccc(N3CCOCC3)cc2n1 [compound 7, 7-Morpholin-4-yl-4 pyrrolidin-1-yl-quinazoline] |
| < 100 | c1cn(CC2CCCN(c3ncnc4cc(N5CCOCC5)ccc34)C2)cn1 (centres unmarked) [compound 23] |
| 500 to 1000 | c1nc(N2CCCC(CN3CCOCC3)C2)c2ccc(N3CCOCC3)cc2n1 (centres unmarked) [compound 21, 7-Morpholin-4-yl-4-(3-morpholin-4-ylmethylpiperidin-1-yl)quinazoline] |
| 500 to 1000 | c1ccc2[nH]c(C3CCCN(c4ncnc5cc(N6CCOCC6)ccc45)C3)nc2c1 (centres unmarked) [compound 24, 4-[3-(1H-Benzo-imidazol-2-yl)-piperidin-1-yl]-7-morpholin-4-yl-quinazoline] |
| 100 to 500 | O=C(NC1CCCN(c2nc(Cl)nc3cc(N4CCOCC4)ccc23)C1)c1cscn1 (centres unmarked) [compound 61] |
| 100 to 500 | N#Cc1nc(N2CCCCC2)c2ccc(N3CCOCC3)cc2n1 [compound 58, 7-Morpholin-4-yl-4-piperidin-1-yl-quinazoline-2-carbonitrile] |
| < 100 | Cc1cccc(C2CCCN(c3ncnc4cc(N5CCOCC5)ccc34)C2)c1 (centres unmarked) [compound 27, 7-Morpholin-4-yl-4-(3-m-tolylpiperidin-1-yl)quinazoline] |
| < 100 | O=C(NC1CCCN(c2nc(Cl)nc3cc(N4CCOCC4)ccc23)C1)c1cncs1 (centres unmarked) [compound 59] |
